Reference: patent US20260069580A1, “PEROXIREDOXIN 3 INHIBITORS AND METHODS OF USE FOR TREATING CANCER” (WAKE FOREST UNIVERSITY HEALTH SCIENCES, priority 2022, published 2026)
Values after ≈ are worked out from the molar mass of the structure shown. Like-named read-outs stand apart in the source and are kept apart here.

Assays:
purified human PRX3 = biological target: T1, purified human PRX3 (Homo sapiens, UniProt P30048); assay: Biochemical PRX3 Inhibition Assay (crosslink by SDS PAGE + mono-adduct by MALDI-TOF MS); conditions: incubated 1-2 hr at 37° C., hydrogen peroxide added
T1 construct: made in house
T1 sequence (P30048 62-256): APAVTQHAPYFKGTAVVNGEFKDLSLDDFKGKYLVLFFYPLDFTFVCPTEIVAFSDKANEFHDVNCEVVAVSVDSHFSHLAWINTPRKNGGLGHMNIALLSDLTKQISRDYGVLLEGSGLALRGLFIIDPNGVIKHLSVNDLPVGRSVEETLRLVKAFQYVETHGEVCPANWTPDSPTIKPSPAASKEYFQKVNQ
Method: This assay tests the ability of each compound to form a covalent adduct with PRX3. The assay is performed as described in Nelson et al. (2021) Antioxidants (Basel) 10, 150; and Cunniff et al. (2015) PloS one 10, eO127310, and follows the appearance of non-reducible PRX3 crosslinks by SDS PAGE gel electrophoresis and follows the appearance of single PRX3 adducts by mass spectrometry. For this assay, purified human PRX3, hydrogen peroxide (the PRX3 substrate) and all the components required to enable PRX3 to catalytically cycle (thioredoxin-thioredoxin reductase-NAPDH system) are included (details below).
The biochemical PRX3 Inhibition assay contains 100 µM PRX3, 50 µM human TRX2, 0.5 μM mouse thioredoxin reductase, and a NADPH regenerating system composed of 3.2 mM glucose 6-phosphate, 3.2 U/ml glucose 6-phosphate dehydrogenase and 0.4 mM NADPH. Samples are incubated for 1-2 hr at 37° C. with either 0.2 mM TS (positive control), compounds or an equivalent volume of DMSO (negative control). During this incubation, hydrogen peroxide is added to induce turnover of PRX3. Reactions are stopped by the addition of a buffer containing 100 mM dithiolthreitol (to break disulfide bonds) and SDS (detergent to denature proteins). NADPH, Glucose 6-Phosphate, and glucose 6-phosphate dehydrogenase were purchased from Sigma Aldrich. PRX3, thioredoxin, and thioredoxin reductase were all purified to >98% purity in the Lowther laboratory according to protocols referenced in Nelson et al. (2021) Antioxidants (Basel) 10, 150; and Cunniff et al. (2015) PloS one 10, e0127310.
To measure the amount of PRX3 crosslink, proteins in the reaction were separated by SDS-polyacrlyamide gel electrophoresis and stained for total protein using GelCode Blue (Life Technologies). The amount of unmodified PRX3 and TS-PRX3 crosslink was measured by densiometric analysis of the signal for the PRX3 band running at the MW of a PRX3 crosslink (˜46 kDa) compared to the PRX3 signal at the MW of the un-modified PRX3 (˜23 kD).
To measure covalent adduct formation on a single PRX3 monomer, each reaction was exchanged into a mass spectrometry compatible buffer containing 40 mM ammonium citrate, pH 8.3 made in HPLC water. Sample was mixed 1:1 with a matrix solution containing 30 mg/mL sinapinic acid in 70% (vol/vol) acetonitrile, 0.2% formic acid and spotted to onto the sample plate. PRX3 mass was measured by MALDI-TOF MS analysis on a Bruker Daltonics MALDI-TOF MS spectrometer. Spectra were analyzed in FLEXAnalysis Software. The intensity of the reduced PRX3 peak (SH) and intensity of the analog adduct peak was determined and corrected for background signal at the adduct peak in the DMSO control. The fraction of single analog adduct in the monomer peak was determined by dividing the intensity of the adduct peak by the summed intensity of the SH and adduct peaks.

Solubility Assay = format: physicochemical; parameters: key: +++: >1 mM; ++: 0.1-1 mM; +: <0.1 mM; −: polymerized; n.d.: not detectable/not measurable; conditions: 20 mM HEPES, 100 mM NaCl, pH 7.5, 18-24 hours at ambient temperature, HPLC
Method: A 20 mM stock solution was made for each compound in DMSO. To measure solubility, 0.03-0.05 mL of the stock was added to 0.27 mL 20 mM HEPES, 100 mM NaCl, pH 7.5. The solution was mixed and rotated 18-24 hours at ambient temperature. The next day, solutions were centrifuged for 10 min at 20,000×g at 24° C. to remove insoluble, solid material. Next, 100 μL of the supernatant containing the soluble compound was added to 900 μL DMSO and High Performance Liquid Chromatography was performed as described in Table 1 and either HPLC gradient 1 (Table 2) for HPLC gradient 2 (Table 3). For each analog, a 200 μM standard and a 20 μM standard were prepared and run in parallel (standards were dissolved completely in 100% DMSO). The amount of compound in the experimental sample was calculated by comparing the area under the curve for compound peak to the area for the closest standard and correcting for dilution.

[1] = system: Enterococcus hirae (ATCC #10541); assay: Antimicrobial Activity Assay; format: cell-based; conditions: for MIC: Enterococcus hirae
Method: The overnight growth was then diluted into growth media to make a single solution of E. hirae with a final optical density at 600 nm=0.02 AU. A 20 mM stock solution of Thiostrepton in DMSO was made and used to make multiple dilutions of TS in DMSO. Each TS dilution (0.1 mL) was then added to a test tube containing 10 mL of the diluted E. hirae and grown at 37° C. overnight while shaking at 180 rpm. The next morning, each tube was visually inspected to determine if the cells grew. Final concentrations tested were 0.120, 0.090, 0.075, 0.060, 0.045, 0.030, and 0.015 μM TS. […] Three replicates were made on three separate days (n=9). […] For TS analogs, the dilute E. hirae was treated with 20 µM final concentration of each analog (three replicates each). […] DMSO was used as a positive control (complete cell growth) and 20 µM thiostrepton was used as a negative control.

[2] = system: human SK—OV-3 ovarian cancer cells; assay: Cellular Activity Assay (cytotoxicity, crystal violet); format: cell-based
Description: To test the activity of compounds, two complimentary assays were used as described below. The Biochemical PRX3 Inhibition Assay tests the ability of each compound to crosslink PRX3 in a simple, in vitro system. In the Cellular Activity Assay, we are testing the ability of compounds to kill SK—OV-3 ovarian cancer cells.
The Cellular Activity Assay measures the EC50 of each compound in human SK—OV-3 ovarian cancer cells TS to be taken into the cell, transported to the mitochondria, and crosslink PRX3.
The cytotoxicity of compounds was measured as described in Nelson et al. (2021) Antioxidants (Basel) 10, 150; Cunniff et al. (2015) PloS one 10, e0127310; and Newick et al. (2012) PloS one 7, e39404. SK—OV-3 is an adherent, epithelial, adenocarcenoma cell line obtained from ATCC (ref #: HTB-77). SK—OV-3 cells are resistant to the commonly used chemotherapeutics, cis-platinum and doxorubicin. For this […], SK—OV-3 cells were plated in a 96-well plate. After 24 h recovery, the cells were treated for 48 hr with multiple concentrations of each compound ranging from 0.1-100 μM.
Cells were washed with PBS to remove dead cells and the remaining live cells were fixed with 3.0% formaldehyde and stained with 0.1% crystal violet. The amount of crystal violet was determined by reading the absorbance at 540 nm (crystal violet dye dissolved in 100% methanol) using a plate reader. The signal for crystal violet dye is proportional to the biomass of remaining live cells. GraphPad Prism9 software was used to calculate the effective inhibitory concentration (EC50) of test compounds. Results for each compound, are normalized to the amount of cells in control wells treated with the equivalent concentration of DMSO (negative control). TS or Compound A (Reference Compound) were included in each set of assays as a positive control.

578 cancer cells lines = conditions: of 578 cancer cells lines tested; cited from earlier work
[3] = ATCC10541, read-out: Antimicrobial Activity
[4] = HEPES/NaCl buffer, aqueous with cosolvent or surfactant or cyclodextrin, kinetic from dmso stock, read-out: Solubility
[5] = ATCC10541, E. hirae, overnight growth at 37° C., read-out: Antimicrobial Activity
[6] = SK—OV-3 cells, treated 48 hr, 0.1-100 μM, crystal violet, read-out: EC50

SMILES	PRX3 Inhibition (Crosslink + Mono-adduct) (purified human PRX3)	solubility (Solubility Assay; [4]) [µM]	MIC [1, 5] [µM]	EC50 [2, 6] [µM]	also measured
C=C(NC(=O)OCC1CCN(C(=O)OC(C)(C)C)CC1)C(=O)NC(=C)C(=O)OC [Compound 3, Tert-butyl 4-(5,8-dimethylene-3,6,9-trioxo-2,10-dioxa-4,7-diazaundecyl)piperidine-1-carboxylate]	+ (5-50%)				solubility (Solubility Assay): −
C=C(NC(=O)c1cn(-c2ccccc2)cn1)C(=O)NC(=C)C(=O)OC [Compound 1, Methyl 2-(2-(1-phenyl-1H-imidazole-4-carboxamido)acrylamido)acrylate]	+++ (>90%)	< 100			MIC [1, 3]: > 20 µM; EC50 ([2]; SK-OV-3, 48 h): 1 to 10 µM
C=C(NC(=O)c1cnn(-c2ccccc2)c1)C(=O)NC(=C)C(=O)OC [Compound 2, Methyl 2-(2-(1-phenyl-1H-pyrazole-4-carboxamido)acrylamido)acrylate]	++ (50-90%)	> 1000	> 20	10 to 25	
C=C(NC(=O)c1cn(C2CCN(C(=O)OC(C)(C)C)CC2)nn1)C(=O)NC(=C)C(=O)OC [Compound 5, Tert-butyl 4-(4-((3-((3-methoxy-3-oxoprop-1-en-2-yl)amino)-3-oxoprop-1-en-2-yl)carbamoyl)-1H-1,2,3-triazol-1-yl)piperidine-1-carboxylate]	++ (50-90%)	< 100	> 20	1 to 10	
C=C(NC(=O)OC1CCN(C(=O)OC(C)(C)C)CC1)C(=O)NC(=C)C(=O)OC [Compound 4, Tert-butyl 4-(((3-((3-methoxy-3-oxoprop-1-en-2-yl)amino)-3-oxoprop-1-en-2-yl)carbamoyl)oxy)piperidine-1-carboxylate]	++ (50-90%)	> 1000	> 20	> 100	
C=C(NC(=O)c1ccn(C2CCN(C(=O)OC(C)(C)C)CC2)n1)C(=O)NC(=C)C(=O)OC [Compound 6, Tert-butyl 4-(3-((3-((3-methoxy-3-oxoprop-1-en-2-yl)amino)-3-oxoprop-1-en-2-yl)carbamoyl)-1H-pyrazol-1-yl)piperidine-1-carboxylate]	+++ (>90%)	> 1000	> 20	25 to 100	
C=C(NC(=O)C(=C)NC(=O)c1csc(C2=N[C@@H]3c4csc(n4)[C@H]4NC(=O)c5csc(n5)[C@H]([C@](C)(O)[C@@H](C)O)NC(=O)[C@H]5CSC(=N5)/C(=C/C)NC(=O)[C@H]([C@@H](C)O)NC(=O)c5csc(n5)[C@]3(CC2)NC(=O)[C@H](C)NC(=O)C(=C)NC(=O)[C@H](C)NC(=O)[C@H]([C@@H](C)CC)N[C@@H]2C=Cc3c([C@H](C)O)cc(nc3[C@H]2O)C(=O)O[C@@H]4C)n1)C(N)=O [Thiostrepton, reference compound]	++ (50-90%)				tumor cells lines in which meaningful efficacy was shown (578 cancer cells lines): 403; TS concentrations at which complete growth was observed ([1]; E. hirae, overnight at 37° C., visual inspection, n=9): ≤ 0.030 µM; MIC [1, 3]: 0.02 to 0.2 µM (≈ 0.0333 to 0.333 µg/mL); MIC ([1]; ATCC10541, read-out: TS concentrations at which no growth was observed (MIC determination)): ≥ 0.045 µM; EC50 ([2]; SK-OV-3, 48 h): 1 to 10 µM; solubility (Solubility Assay; aqueous with cosolvent or surfactant or cyclodextrin, kinetic from dmso stock, read-out: Solubility): < 100 µM
C=C(NC(=O)c1csc(-c2ccc(NC(=O)CCCCCBr)cc2)n1)C(=O)NC(=C)C(=O)OC [Compound A, Methyl 2-(2-(2-(4-(6-bromohexanamido)phenyl)thiazole-4-carboxamido)acrylamido)acrylate, reference compound]		< 100			Antimicrobial Activity ([1]; E. hirae, overnight growth at 37° C.): − (>20 μM)
